Measurements from PubChem BioAssay AID1996.
In brackets after ≈: the same amount, converted by molar mass.

Settings: buffer; pH 7.4; 200.0 µM
`Cc1cc(C)nc(SCC(=O)N/N=C/c2cccnc2)n1` gave a solubility kinetic greater than 45.2 µg/mL. `CC(NC(=O)c1ccc(Br)o1)C1CC2CCC1C2` (stereo not given) gave a solubility kinetic of 29.3 µg/mL (≈ 93.8 µM). In the case of `COc1ccccc1-c1cc(C(=O)NC2CCCC2)no1`, the solubility kinetic is reported as 6.1 µg/mL (≈ 21.3 µM). Work on `O=C(COC(=O)/C=C/c1ccco1)NCc1ccc(Cl)cc1Cl` yielded a solubility kinetic of 7.6 µg/mL (≈ 21.5 µM). In the case of `O=C(O)C(=O)O.c1ccc2cc(OCCCn3ccnc3)ccc2c1`, the solubility kinetic is reported as greater than 51.4 µg/mL. Compound `CC1CCCC(C)N1/N=C/c1ccc(C#N)cc1` (stereo not given) has a solubility kinetic greater than 36.2 µg/mL. For `O=C(NCCNC(=O)c1cc(Cl)ccc1Cl)c1ccccn1`, the solubility kinetic was greater than 50.7 µg/mL. `N#Cc1nc(-c2ccccc2F)oc1N1CCCCC1` gave a solubility kinetic of 2.3 µg/mL (≈ 8.48 µM). `O=S(=O)(c1ccc(Cl)nc1)N1CCN(c2ncccn2)CC1` showed a solubility kinetic of 1 µg/mL (≈ 2.94 µM). With `Cc1ccc(OCC(O)CN2CCc3ccccc3C2)c(C)c1.Cl` (stereo not given) the solubility kinetic was 30.7 µg/mL. In the case of `Cc1cc(C)nc(/N=C(\N)Nc2ccc(OCCC(C)C)cc2)n1`, the solubility kinetic is reported as greater than 49.1 µg/mL. For `COc1cccc(NC(=S)N2CCN(C)CC2)c1`, the solubility kinetic was greater than 39.8 µg/mL. With `Cc1ccc(N2C(S)=C(C#N)C(=O)NC2c2ccco2)cc1` (stereo not given) the solubility kinetic was greater than 46.7 µg/mL. `CCN(CC)S(=O)(=O)c1ccc(OC)c(N)c1` showed a solubility kinetic of 35.1 µg/mL (≈ 136 µM). Work on `COCCCN(C(=O)C1CCCCC1)c1c(N)n(Cc2ccccc2)c(=O)[nH]c1=O` yielded a solubility kinetic of 14.3 µg/mL (≈ 34.5 µM). In the case of `Clc1nc2c(ccc3ccccc32)[nH]1`, the solubility kinetic is reported as greater than 30.4 µg/mL. `Brc1ccccc1C1Nc2cccc3cccc(c23)N1` showed a solubility kinetic of 2.8 µg/mL (≈ 8.61 µM). `O=C(/C=C/c1ccccc1)NCc1ccco1` showed a solubility kinetic greater than 34.1 µg/mL. Work on `CC(=O)Nc1ccc(CNC(=O)C[N+]2(C)CCOCC2)cc1.[Cl-]` yielded a solubility kinetic of 46.2 µg/mL. Compound `CC(=O)Nc1ccc(OCC(=O)NCc2ccc(C)cc2)cc1` has a solubility kinetic greater than 46.9 µg/mL. In the case of `CNC(=O)c1c(NC(=O)C(C)C)sc2c1CCC2`, the solubility kinetic is reported as 36.5 µg/mL (≈ 137 µM). Compound `CC(C)c1ccc(-c2c(NCCc3ccccc3)c(=O)c2=O)cc1` has a solubility kinetic of 0.9 µg/mL (≈ 2.82 µM). With `CCOC(=O)NC(=S)Nc1c(C)n(C)n(-c2ccccc2)c1=O` the solubility kinetic was greater than 50.2 µg/mL. Work on `O=C(Nc1nc2ccc(F)cc2s1)Oc1ccccc1` yielded a solubility kinetic of 1.7 µg/mL (≈ 5.9 µM). For `C=CCn1c(O)c(C(CC)=NCC2CCCO2)c(=O)[nH]c1=O` (stereo not given), the solubility kinetic was greater than 46.1 µg/mL. Compound `CC(C)OP(=O)(O)NC(=O)c1ccccc1` has a solubility kinetic greater than 36.5 µg/mL. `CCSC1=N/C(=C\c2ccccc2)C(=O)N1c1ccc(OC)cc1` showed a solubility kinetic of less than 0.4 µg/mL. `Cc1[nH]c2ccc(Cl)cc2c(=O)c1CN1CCCC1` showed a solubility kinetic of 38.7 µg/mL (≈ 140 µM). For `CN1CCN(c2ccc(Cl)cc2NC(=O)/C=C/c2cccc(F)c2)CC1`, the solubility kinetic was 34.4 µg/mL (≈ 92 µM). With `O=C(Cc1ccccc1)Nc1cccc(NC(=O)c2ccccc2)c1` the solubility kinetic was 1.5 µg/mL (≈ 4.54 µM). In the case of `COc1ccc(NC(=O)CN2C(=O)NC3(CCCc4ccccc43)C2=O)c(OC)c1` (stereo not given), the solubility kinetic is reported as greater than 61.4 µg/mL. Compound `COC(=O)C1CSC(C)(C)C(=O)N1` (stereo not given) has a solubility kinetic greater than 30.5 µg/mL. In the case of `O=C(COC(=O)C1=COCCO1)Nc1ccccc1OC(F)F`, the solubility kinetic is reported as greater than 49.4 µg/mL. For `CSCC[C@H](NC(=O)Nc1ccc(Oc2ccccc2)cc1)C(=O)O`, the solubility kinetic was greater than 54.1 µg/mL. With `Cc1cc(Br)ccc1NC(=S)NC1CCCC1` the solubility kinetic was 19.1 µg/mL (≈ 61 µM). With `Cc1c(Cl)cccc1NC(=S)N1CCCCCC1` the solubility kinetic was 29.3 µg/mL (≈ 104 µM). Work on `NS(=O)(=O)c1ccc(NC(=O)Nc2ccc(S(N)(=O)=O)cc2)cc1` yielded a solubility kinetic of 9.7 µg/mL (≈ 26.2 µM). For `CCN(CC)C(=O)CSc1nc(-c2ccccc2)cc(=O)[nH]1`, the solubility kinetic was greater than 47.6 µg/mL. For `CCOc1cc2c(C#N)c(N3CCNCC3)nc(N)c2c(N)n1`, the solubility kinetic was 1.3 µg/mL (≈ 4.15 µM). In the case of `CN(C)C(=O)C#Cc1ccccc1`, the solubility kinetic is reported as greater than 26 µg/mL. `Cc1ccc(C)c(NC(=S)Nc2cccnc2)c1` showed a solubility kinetic greater than 38.6 µg/mL. In the case of `NS(=O)(=O)c1cccc(NC(=O)c2ccc(NS(=O)(=O)c3cccc([N+](=O)[O-])c3)cc2)c1`, the solubility kinetic is reported as greater than 71.5 µg/mL. In the case of `Cc1ccc(NC(=S)NCc2ccco2)c(C)c1`, the solubility kinetic is reported as greater than 39.1 µg/mL. Work on `COCCNC(=O)C(NC(=O)C1CCCCC1)C12CC3CC(CC(C3)C1)C2` (stereo not given) yielded a solubility kinetic of 5.5 µg/mL (≈ 14.6 µM). `COc1ccccc1CN1CCCCCC1.O=C(O)C(=O)O` gave a solubility kinetic of 40.8 µg/mL. For `Cc1cc(C(=O)OCC(=O)NCc2ccco2)c(C)o1`, the solubility kinetic was greater than 41.6 µg/mL. `CCCc1nc2ccccc2c(C(=O)OCC(=O)NC2CC2)c1CC` showed a solubility kinetic greater than 51.1 µg/mL. In the case of `CC(C)CCCC(C)CCOC(=O)CN1CCCC1` (stereo not given), the solubility kinetic is reported as 1.9 µg/mL (≈ 7.05 µM). With `O=C(O)c1c(NC(=O)N2CCCC2)sc2c1CCCC2` the solubility kinetic was greater than 44.2 µg/mL. Work on `Cc1cc(C(=O)Nc2ccccc2)oc(=O)c1` yielded a solubility kinetic of 25.9 µg/mL (≈ 113 µM). Compound `CCc1cccc(C)c1NC(=O)CSc1nnc(C)o1` has a solubility kinetic greater than 43.7 µg/mL. `CNS(=O)(=O)c1cccc(C(=O)OCC(=O)Nc2ccc3ccccc3c2)c1` gave a solubility kinetic of 2.8 µg/mL (≈ 7.03 µM). Compound `CCOc1ccc(-c2nc(N)ncc2-c2ccccc2OC)c(O)c1` has a solubility kinetic of 1.3 µg/mL (≈ 3.85 µM). `Cc1cc(Oc2ccc(N)cn2)cc(C)c1Cl` gave a solubility kinetic of 27.6 µg/mL (≈ 111 µM). Work on `COc1ccc(NC(=O)CC2CCCC2)cc1OC` yielded a solubility kinetic greater than 39.5 µg/mL. With `Nc1ccc2nc(SCC(=O)N3CCOCC3)sc2c1` the solubility kinetic was greater than 46.4 µg/mL. With `COC(=O)c1sccc1NC(=O)c1ccc(C)cc1` the solubility kinetic was less than 0.6 µg/mL. `COc1ccc2[nH]c(C(=O)NCCc3ccccc3)cc2c1` showed a solubility kinetic of 1 µg/mL (≈ 3.4 µM). `COc1ccc(-n2c(C)c(C(=O)O)c3cc(OC)c4ccccc4c32)cc1` showed a solubility kinetic of less than 0.8 µg/mL. For `CCN(C(=O)COC(=O)CNC(=O)c1ccc(Cl)cc1Cl)c1c(N)n(Cc2ccccc2)c(=O)[nH]c1=O`, the solubility kinetic was greater than 82.3 µg/mL.
